ChEMBL document CHEMBL1145690, “Antimalarial activity of tropical Meliaceae extracts and gedunin derivatives” (J Nat Prod, 1997)
Converted amounts (≈) assume the structure as drawn. The source made the active and inactive calls. The calls are words filed in the database; no cut-off is given here.

How the values were obtained:
Plasmodium falciparum [1] = test: Antimalarial activity against Plasmodium falciparum W2 by [3H]hypoxanthine uptake; format: functional, organism-based
KB [2] = test: Cytotoxicity against human KB cells; format: functional, cell-based
KB [3] = test: Cytotoxicity against human KB cells assessed as viability at 20000 ng/ml; format: functional; conditions: read-out: Activity
Plasmodium falciparum [4] = test: Antimalarial activity against Plasmodium falciparum D6 by [3H]hypoxanthine uptake; format: functional, organism-based
Plasmodium falciparum [5] = test: Antimalarial activity against Plasmodium falciparum D6 by [3H]hypoxanthine uptake relative to gedunin; format: functional
Plasmodium falciparum [6] = test: Antimalarial activity against Plasmodium falciparum; format: functional, organism-based
Plasmodium falciparum [7] = test: Antimalarial activity against Plasmodium falciparum FCR3TC by radioisotope micro dilution assay; format: functional, organism-based
Plasmodium falciparum [8] = test: Antimalarial activity against Plasmodium falciparum at 50000 ng/ml; format: functional, organism-based

Row | SMILES | IC50 (Plasmodium falciparum [1]) [µg/mL] | IC50 (KB [2]) [µg/mL] | viability at 20 µg/mL (KB [3]) [%] | IC50 (Plasmodium falciparum [4]) [µg/mL] | Activity (Plasmodium falciparum [5]) [%] | IC50 (Plasmodium falciparum [6]) [µg/mL] | IC50 (Plasmodium falciparum [7]) [µg/mL] | Activity (Plasmodium falciparum [8])
1 | CC(=O)O[C@@H]1C[C@H]2C(C)(C)C(=O)C=C[C@]2(C)[C@H]2CC[C@@]3(C)[C@H](c4coc(C(C)=O)c4)OC(=O)[C@H]4O[C@]43[C@@]21C | 0.156 (≈ 0.297 µM) | 10.9 (≈ 20.8 µM) | 38 | 0.832 (≈ 1.59 µM) | 4.69 | – | – | –
2 | CC(=O)O[C@@H]1C[C@H]2C(C)(C)C(=O)C=C[C@]2(C)[C@H]2CC[C@@]3(C)[C@H](c4ccoc4C(C)=O)OC(=O)[C@H]4O[C@]43[C@@]21C | 0.039 (≈ 0.0743 µM) | 9.4 (≈ 17.9 µM) | 31 | 0.133 (≈ 0.254 µM) | 29.38 | – | – | –
3 | CC(=O)O[C@@H]1C[C@H]2C(C)(C)C(=O)[C@@H]3O[C@@H]3[C@]2(C)[C@H]2CC[C@@]3(C)[C@H](c4ccoc4)OC(=O)[C@H]4O[C@]43[C@@]21C | 0.98 (≈ 1.97 µM) | – | 81 | 2.58 (≈ 5.17 µM) | 0.93 | – | – | –
4 | C[C@@H]1CC[C@H]2[C@@H](C)C(=O)O[C@@H]3O[C@@]4(C)CC[C@@H]1[C@]32OO4 [ARTEMISININ] | 0.0005 (≈ 0.00177 µM) | > 20 | – | 0.0018 (≈ 0.00638 µM) | 2170 | – | – | –
5 | CCN(CC)CCCC(C)Nc1ccnc2cc(Cl)ccc12 (stereo unspecified) [CHLOROQUINE] | – | 17.4 (≈ 54.4 µM) | – | – | 3000 | – | – | –
6 | CC1(C)C(=O)C=C[C@]2(C)[C@H]3CC[C@@]4(C)[C@H](c5ccoc5)OC(=O)[C@H]5O[C@]54[C@]3(C)C(=O)C[C@@H]12 [DEACETOXY-7-OXOGEDUNIN] | > 10 | – | 99 | > 10 | <0.39 | – | – | –
7 | CC1(C)C(=O)C=C[C@]2(C)[C@H]3CC[C@@]4(C)[C@H](c5ccoc5)OC(=O)[C@H]5O[C@]54[C@]3(C)[C@H](O)C[C@@H]12 [DEACETYLGEDUNIN] | 1.28 (≈ 2.91 µM) | – | 39 | 2.61 (≈ 5.92 µM) | 1.5 | – | – | –
8 | CC(=O)O[C@@H]1C[C@H]2C(C)(C)C(=O)CC[C@]2(C)[C@H]2CC[C@@]3(C)[C@H](c4ccoc4)OC(=O)[C@H]4O[C@]43[C@@]21C [DIHYDROGEDUNIN] | 0.84 (≈ 1.73 µM) | – | 71 | > 10 | <0.39 | 2.63 (≈ 5.43 µM) | – | –
9 | CC(=O)O[C@@H]1C[C@H]2C(C)(C)C(=O)C=C[C@]2(C)[C@H]2CC[C@@]3(C)[C@H](c4ccoc4)OC(=O)[C@H]4O[C@]43[C@@]21C [GEDUNIN] | 0.02 (≈ 0.0414 µM) | 2.3 (≈ 4.77 µM) | 32 | 0.039 (≈ 0.0808 µM) | – | 0.72 (≈ 1.49 µM) | 0.8 (≈ 1.66 µM) | –
10 | CC(=O)O[C@@H]1C[C@H]2C(C)(C)C(=O)CC[C@]2(C)[C@H]2CC[C@@]3(C)[C@H](C4CCOC4)OC(=O)[C@H]4O[C@]43[C@@]21C (stereo partly specified) [HEXAHYDROGEDUNIN] | 2.13 (≈ 4.36 µM) | – | 99 | 10 (≈ 20.5 µM) | 0.39 | – | – | –
11 | CCOC(=O)[C@H]1[C@@H](OC(C)=O)[C@@H]2[C@@]3(C)C=CC(=O)[C@@](C)(C(=O)OC)C3=CC(=O)[C@@]2(C)[C@@]23O[C@@H]2C[C@@H](c2ccoc2)[C@]13C [HIRITIN] | 0.096 (≈ 0.165 µM) | 0.5 (≈ 0.861 µM) | 4.9 | 0.173 (≈ 0.298 µM) | 22.6 | – | – | –
12 | CC1(C)O[C@H]2CC(=O)OC[C@]23[C@H]2CC[C@@]4(C)[C@H](c5ccoc5)OC(=O)[C@H]5O[C@]54[C@]2(C)C(=O)C[C@@H]13 [LIMONIN] | – | – | – | – | – | – | > 100 | inactive
13 | OC(c1cc(C(F)(F)F)nc2c(C(F)(F)F)cccc12)C1CCCCN1 (stereo unspecified) [MEFLOQUINE] | 0.0014 (≈ 0.0037 µM) | 3.5 (≈ 9.25 µM) | – | 0.0075 (≈ 0.0198 µM) | 521 | – | – | –
14 | COC(=O)C[C@H]1[C@]2(C)C3=C(C)[C@H](c4ccoc4)C[C@H]3O[C@@H]2[C@@H]2OC(=O)[C@]3(C)C=CC(=O)[C@@]1(C)[C@@H]23 [NIMBOLIDE] | – | – | – | – | – | 1.74 (≈ 3.73 µM) | – | –
15 | C=C[C@H]1CN2CC[C@H]1C[C@H]2[C@H](O)c1ccnc2ccc(OC)cc12 [QUININE] | 0.0349 (≈ 0.108 µM) | > 20 | – | – | 264 | – | – | –
16 | CC(=O)O[C@@H]1C[C@H]2C(C)(C)C(=O)C=C[C@]2(C)[C@H]2CC[C@@]3(C)[C@H](C4CCOC4)OC(=O)[C@H]4O[C@]43[C@@]21C (stereo partly specified) [TETRAHYDROGEDUNIN] | 0.9 (≈ 1.85 µM) | – | 81 | 2.5 (≈ 5.14 µM) | 1.56 | – | – | –
17 | CC(=O)O[C@@H]1C[C@H]2C(C)(C)[C@@H](O)CC[C@]2(C)[C@H]2CC[C@@]3(C)[C@H](c4ccoc4)OC(=O)[C@H]4O[C@]43[C@@]21C [beta-DIHYDROGEDUNOL] | 2.44 (≈ 5.01 µM) | – | 69 | 4.21 (≈ 8.65 µM) | 0.93 | – | – | –
